ChEMBL document CHEMBL4651402, “Screening of ~5500 FDA-approved drugs and clinical candidates for anti-SARS-CoV-2 activity” (2021)

Test system: SARS-CoV-2
Experiment: microbe, parasite or virus in culture
Settings: Severe acute respiratory syndrome coronavirus 2, Vero C1008, 48 h

Row | Compound | IC50 [µM] | IC50 (read-out: pIC50 (converted)) [µM]
1 | O=C(O)c1ccccc1O [SALICYLIC ACID] | > 20 | > 20
2 | O=C(N/N=C/c1ccccc1O)c1ccncc1 [SALINAZID] | > 20 | > 20
3 | CC(C)=CCC/C(C)=C/CC/C(C)=C/CSc1ccccc1C(=O)O [SALIRASIB] | > 20 | > 20
4 | O=C(Oc1ccccc1C(=O)O)c1ccccc1O [SALSALATE] | > 20 | > 20
5 | COc1cc2c(cc1O)CCNC2C (stereo not drawn) [SALSOLINE] | > 20 | > 20
6 | CC1=C2[C@H]3OC(=O)[C@@H](C)[C@@H]3CC[C@@]2(C)C=CC1=O [SANTONIN] | > 20 | > 20
7 | CC(C)n1nc(-c2ccc3oc(N)nc3c2)c2c(N)ncnc21 [SAPANISERTIB] | > 20 | > 20
8 | CNC(=O)CN1CCC(Oc2cc3c(Nc4cccc(Cl)c4F)ncnc3cc2OC)CC1 [SAPITINIB] | > 20 | > 20
9 | C[C@H](O)[C@H](O)[C@H]1CNc2nc(N)[nH]c(=O)c2N1 [SAPROPTERIN] | > 20 | > 20
10 | CN1CCN(CCOc2cc(OC3CCOCC3)c3c(Nc4c(Cl)ccc5c4OCO5)ncnc3c2)CC1 [SARACATINIB] | > 20 | > 20
11 | O=C(O)c1cn(-c2ccc(F)cc2)c2cc(N3CCNCC3)c(F)cc2c1=O [SARAFLOXACIN] | > 20 | > 20
12 | CNCC(=O)O [SARCOSINE] | > 20 | > 20
13 | CON(C)Cc1ccc(O)c2c1C[C@H]1C[C@H]3[C@H](N(C)C)C(O)=C(C(N)=O)C(=O)[C@@]3(O)C(O)=C1C2=O [SARECYCLINE] | > 20 | > 20
14 | COc1cccc(CCc2ccccc2OCC(CN(C)C)OC(=O)CCC(=O)O)c1 (stereo not drawn) [SARPOGRELATE] | > 20 | > 20
15 | C[C@@H](c1ccc2nccn2c1)n1nnc2ncc(-c3cnn(C)c3)nc21 [SAVOLITINIB] | > 20 | > 20
16 | N#C[C@@H]1C[C@@H]2C[C@@H]2N1C(=O)[C@@H](N)C12CC3CC(CC(O)(C3)C1)C2 [SAXAGLIPTIN ANHYDROUS] | > 20 | > 20
17 | C[S+]([O-])c1ccc(-c2nc(-c3ccc(F)cc3)c(-c3ccncc3)[nH]2)cc1 (stereo not drawn) [SB-203580] | > 20 | > 20
18 | Cc1nc(C(=O)N2CCCC[C@H]2CNC(=O)c2cccc3occc23)c(-c2ccc(F)cc2)s1 [SB-649868] | > 20 | > 20
19 | CCCc1c(OCCCOc2ccc(C(C)=O)c(OC)c2CCC)ccc2c1OC(C(=O)O)CC2 (stereo not drawn) [SC-41390] | > 20 | > 20
20 | CN1CCc2cc(Cl)c(O)cc2[C@@H](c2ccccc2)C1 [SCH-23390] | > 20 | > 20
21 | CC(=O)N1CCC(=C2c3ccc(Cl)cc3CCc3cccnc32)CC1 [SCH-37370] | > 20 | > 20
22 | Cn1cc(-c2cnn3c(N)c(Br)c([C@@H]4CCCNC4)nc23)cn1 [SCH-900776] | > 20 | > 20
23 | CN1[C@@H]2C[C@@H](OC(=O)[C@H](CO)c3ccccc3)C[C@H]1[C@@H]1O[C@@H]12 [SCOPOLAMINE] | > 20 | > 20

Row | Compound | IC50 [µM] | IC50 (read-out: pIC50 (converted)) [µM]
24 | COc1cc2ccc(=O)oc2cc1O [SCOPOLETIN] | > 20 | > 20
25 | COc1cc2c(cc1O)[C@@H]1Cc3ccc(OC)c(O)c3CN1CC2 [SCOULERINE] | > 20 | > 20
26 | O=C1c2cc(Cl)ccc2OC2CCON12 (stereo not drawn) [SECLAZONE] | > 20 | > 20
27 | Cc1ncc([N+](=O)[O-])n1CC(C)O (stereo not drawn) [SECNIDAZOLE] | > 20 | > 20
28 | C=CCC1(C(C)CCC)C(=O)NC(=O)NC1=O (stereo not drawn) [SECOBARBITAL] | > 20 | > 20
29 | O=C1C=C2C=C[C@@H]3C[C@@]2(O1)[C@H]1CCCCN31 [SECURININE] | > 20 | > 20
30 | CCCC[C@](C)(CO)Nc1nc(N)nc2cc(F)cnc12 [SELGANTOLIMOD] | > 20 | > 20
31 | CC[C@H](CO)Nc1nc(NCc2ccccc2)c2ncn(C(C)C)c2n1 [SELICICLIB] | > 20 | > 20
32 | O=C(/C=C\n1cnc(-c2cc(C(F)(F)F)cc(C(F)(F)F)c2)n1)NNc1cnccn1 [SELINEXOR] | > 20 | > 20
33 | Cn1cnc2c(F)c(Nc3ccc(Br)cc3Cl)c(C(=O)NOCCO)cc21 [SELUMETINIB] | > 20 | > 20
34 | C=C1C/C(=C/C)C(=O)O[C@@H]2CCN3CC=C(COC(=O)[C@]1(C)O)[C@H]23 [SENECIPHYLLINE] | > 20 | > 20
35 | NC(=O)C(c1ccccc1)(c1ccc(F)cc1)c1ccc(F)cc1 [SENICAPOC] | > 20 | > 20
36 | C[C@H](O)C(=O)C1=Nc2c(nc(N)[nH]c2=O)NC1 [SEPIAPTERIN] | > 20 | > 20
37 | CC1=C(C)C(=O)C(C(CCCCCC(=O)O)c2ccccc2)=C(C)C1=O (stereo not drawn) [SERATRODAST] | > 20 | > 20
38 | NCCc1c[nH]c2ccc(O)cc12 [SEROTONIN] | > 20 | > 20
39 | Clc1ccc(C(Cn2ccnc2)OCc2csc3c(Cl)cccc23)c(Cl)c1 (stereo not drawn) [SERTACONAZOLE] | > 20 | > 20
40 | O=C1NCCN1CCN1CCC(c2cn(-c3ccc(F)cc3)c3ccc(Cl)cc23)CC1 [SERTINDOLE] | > 20 | > 20
41 | c1cc2c(cc1[C@H]1OC[C@H]3[C@@H]1CO[C@@H]3c1ccc3c(c1)OCO3)OCO2 [SESAMIN] | > 20 | > 20
42 | O=C(O)Cn1c2c(c3cc(F)ccc31)CN(C(=O)c1cccc3ccccc13)CC2 [SETIPIPRANT] | > 20 | > 20
43 | Cc1nc2n(c(=O)c1CCN1CCC(C(=O)c3ccc(F)cc3)CC1)CCS2 [SETOPERONE] | > 20 | > 20
44 | CC(C)[C@](O)(c1ccc2cc(OC(F)F)c(OC(F)F)cc2c1)c1c[nH]nn1 [SEVITERONEL] | > 20 | > 20
45 | O=C(O)C1=C[C@@H](O)[C@@H](O)[C@H](O)C1 [SHIKIMIC ACID] | > 20 | > 20
46 | CC(C)=CC[C@@H](O)C1=CC(=O)c2c(O)ccc(O)c2C1=O [SHIKONIN] | > 20 | > 20

Row | Compound | IC50 [µM] | IC50 (read-out: pIC50 (converted)) [µM]
47 | CC(C)CC(N(C)C)C1(c2ccc(Cl)cc2)CCC1 (stereo not drawn) [SIBUTRAMINE] | > 20 | > 20
48 | C[C@H](Cc1cc2c(c(C(N)=O)c1)N(CCCO)CC2)NCCOc1ccccc1OCC(F)(F)F [SILODOSIN] | > 20 | > 20
49 | COc1cc([C@H]2Oc3cc([C@H]4Oc5cc(O)cc(O)c5C(=O)[C@@H]4O)ccc3O[C@@H]2CO)ccc1O [SILYBIN A] | > 20 | > 20
50 | COc1cc([C@@H]2Oc3cc([C@H]4Oc5cc(O)cc(O)c5C(=O)[C@@H]4O)ccc3O[C@H]2CO)ccc1O [SILYBIN B] | > 20 | > 20
51 | CCC(C)(C)C(=O)O[C@H]1C[C@@H](C)C=C2C=C[C@H](C)[C@H](CC[C@@H]3C[C@@H](O)CC(=O)O3)[C@H]21 [SIMVASTATIN] | > 20 | > 20
52 | COc1cc(/C=C/C(=O)O)cc(OC)c1OC [SINAPIC ACID METHYL ETHER] | > 20 | > 20
53 | COC1=C[C@@H]2[C@@H]3Cc4ccc(OC)c(O)c4[C@]2(CCN3C)CC1=O [SINOMENINE] | > 20 | > 20
54 | CCc1cc(/C(C)=N/OCc2ccc(C3CCCCC3)c(C(F)(F)F)c2)ccc1CN1CC(C(=O)O)C1 [SIPONIMOD] | > 20 | > 20
55 | CO[C@H]1C[C@@H]2CC[C@@H](C)[C@@](O)(O2)C(=O)C(=O)N2CCCC[C@H]2C(=O)O[C@H]([C@H](C)C[C@@H]2CC[C@@H](O)[C@H](OC)C2)CC(=O)[C@H](C)/C=C(\C)[C@@H](O)[C@@H](OC)C(=O)[C@H](C)C[C@H](C)/C=C/C=C/C=C/1C [SIROLIMUS] | > 20 | > 20
56 | NCc1ccc2c(c1)nc(CN1C(=O)C3(CC3)c3ccc(F)cc31)n2CCCC(F)(F)F [SISUNATOVIR] | > 20 | > 20
57 | N[C@@H](CC(=O)N1CCn2c(nnc2C(F)(F)F)C1)Cc1cc(F)c(F)cc1F [SITAGLIPTIN] | > 20 | > 20
58 | Cc1cc2c(cc1CC(=O)c1sccc1S(=O)(=O)Nc1onc(C)c1Cl)OCO2 [SITAXENTAN] | > 20 | > 20
59 | COCCNCc1ccc(-c2cc3nccc(Oc4ccc(NC(=O)C5(C(=O)Nc6ccc(F)cc6)CC5)cc4F)c3s2)nc1 [SITRAVATINIB] | > 20 | > 20
60 | COc1ccc2c(OC)c3ccoc3nc2c1OC [SKIMMIANINE] | > 20 | > 20
61 | CC1(C)CC(=O)c2c(C(F)(F)F)nn(-c3ccc(C(N)=O)c(N[C@H]4CC[C@H](OC(=O)CN)CC4)c3)c2C1 [SNX 5422] | > 20 | > 20
62 | O=C(O)c1cccc(-c2cccc(NCCNC[C@H](O)c3cccc(Cl)c3)c2)c1 [SOLABEGRON] | > 20 | > 20
63 | CC1(C)CN(C(=O)c2ccc(-c3cccc4nc(NC(=O)C5CC5)nn34)cc2)C1 [SOLCITINIB] | > 20 | > 20
64 | NS(=O)(=O)c1ccc(N2CCN(CC[C@@H]3OCCc4ccccc43)CC2)cc1 [SONEPIPRAZOLE] | > 20 | > 20
65 | CNC(=O)c1cc(Oc2ccc(NC(=O)Nc3ccc(Cl)c(C(F)(F)F)c3)cc2)ccn1 [SORAFENIB] | > 20 | > 20
66 | COCCO[C@@H]1c2ccn3c(C)c(C)nc3c2N[C@H](c2ccccc2)[C@H]1O [SORAPRAZAN] | > 20 | > 20
67 | OC[C@@H](O)[C@@H](O)[C@H](O)[C@@H](O)CO [SORBITOL] | > 20 | > 20
68 | O=c1[nH]c(=O)n([C@@H]2O[C@H](CO)[C@@H](O)[C@@H]2O)cc1/C=C/Br [SORIVUDINE] | > 20 | > 20
69 | CCOc1ccc(Cc2cc([C@@H]3O[C@H](SC)[C@@H](O)[C@H](O)[C@H]3O)ccc2Cl)cc1 [SOTAGLIFLOZIN] | > 20 | > 20
